# System: B16-F10 melanoma cells
# Test: Melanin formation inhibition (without UV stress) in B16-F10 melanoma cells
# Type: cell-based
# Description: Experiments were conducted to evaluate suppression of melanin synthesis using B16 melanoma cells by Portulaca Extract, ASG and Portulaca/ASG blend with and without UV stress at different levels. These experiments were performed to quantify skin whitening effects of the blend versus the individual components of the blend. Test (I)—Melanin Formation Inhibition (without UV Stress) Two sets of B16-F10 melanoma cells (ATCC 6475) were seeded at 6 well multi-plates with 1×10^5 density and cultured in Culbecco's Modified Eagle's Medium (DMEM) supplemented 10% fetal bovine serum (FBS) at 37° C. for 24 hours. The medium was exchanged with fresh DMEM media containing 10% FBS and test samples were added and cultured for 72 hours at 37° C. One set of cultured cells was washed with 2 ml of PBS (phosphate buffered saline) and cells were dissolved by 250 ul of 1N NaOH and melanin content was measured by UV absorbance at 450 nm. The other set of cells was incubated after adding 200 ul of MTT (2.5 mg/ml) at 37° C. for 4 hours. Culture medium was discarded and cells were dissolved for 10 minutes at room temperature by adding 2 ml of DMSO. After the cells were completely dissolved, UV absorbance was measured at 570 nm. […] [table]
smiles,measurement,setting,value
"O=C1O[C@H]([C@H](O)CO)C(O)=C1O[C@H]1O[C@H](CO)[C@@H](O)[C@H](O)[C@H]1O [ASG, 2-0-α-D-glucopyranosyl-L-ascorbic acid]",melanin formation inhibition,"1.2% of ASG, 72 hours, FIGS. 1 and 2",about 20%
same,melanin formation inhibition (result in words),"B16-F10 cells, concentration series of Table 2",melanin formation inhibition in a dose dependent manner

# Reference: US20120189564A1, “COMPOSITIONS OF VITAMIN C DERIVATIVE AND PORTULACA EXTRACT” (PRESPERSE CORPORATION, priority 2011, published 2012)
